Laboratory results: publication PMC8712285, “Thermococcus sp. KS-1 PPIase as a fusion partner improving soluble production of aromatic amino acid decarboxylase” (AMB Express, 2021)

Columns and labels:
NusA-AADC = molecular target: T1, NusA-AADC (Pseudomonas putida, UniProt Q88JU5); assay: HPLC of dopamine formation, cell-free extract; format: biochemical; conditions: 1 mM L-dopa, 50 uM PLP, 2 mM 2-ME, 50 mM potassium phosphate pH 8.0, 30 °C
T1 construct: gene PP_2552; E. coli BL21(DE3)

[1] = molecular target: T2, AADC (aromatic amino acid decarboxylase) (Pseudomonas putida, UniProt Q88JU5); assay: HPLC of dopamine formation, cell-free extract; format: biochemical; conditions: 1 mM L-dopa, 50 uM PLP, 2 mM 2-ME, 50 mM potassium phosphate pH 8.0, 30 °C
T2 construct: gene PP_2552; full-length, untagged, from pET-3a (pAADC) in E. coli BL21(DE3)

PPIase KS-1-AADC [2] = molecular target: T3, PPIase KS-1-AADC (Pseudomonas putida, UniProt Q88JU5); assay: HPLC of dopamine formation, cell-free extract; format: biochemical; conditions: 1 mM L-dopa, 50 uM PLP, 2 mM 2-ME, 50 mM potassium phosphate pH 8.0, 30 °C
T3 construct: gene PP_2552; AADC with N-terminal solubility partner Thermococcus sp; not cut; E. coli BL21(DE3)

PPIase KS-1-AADC [3] = molecular target: T3, PPIase KS-1-AADC; assay: HPLC (AccQ-tag) of phenylethylamine produced by recombinant E. coli cells; format: cell-based; conditions: 1 mM L-phenylalanine, M9 minimal medium, 25 °C, whole cells

T3 sequence (Q88JU5 entry or part of it): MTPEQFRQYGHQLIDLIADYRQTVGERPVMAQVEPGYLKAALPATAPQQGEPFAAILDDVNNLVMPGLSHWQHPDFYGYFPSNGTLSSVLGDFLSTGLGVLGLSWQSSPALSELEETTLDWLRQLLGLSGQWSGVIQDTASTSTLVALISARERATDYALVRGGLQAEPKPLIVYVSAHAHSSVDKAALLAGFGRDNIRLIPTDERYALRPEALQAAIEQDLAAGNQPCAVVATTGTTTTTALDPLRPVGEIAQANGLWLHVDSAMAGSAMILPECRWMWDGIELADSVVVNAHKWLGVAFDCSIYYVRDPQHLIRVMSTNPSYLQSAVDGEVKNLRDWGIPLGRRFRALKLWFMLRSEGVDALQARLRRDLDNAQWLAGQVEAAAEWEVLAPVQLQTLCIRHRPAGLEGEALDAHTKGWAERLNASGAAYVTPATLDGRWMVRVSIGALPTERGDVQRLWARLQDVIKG
T2 sequence (Q88JU5 entry or part of it): as above
T1 sequence (Q88JU5 entry or part of it): as above

Row | SMILES | HPLC of dopamine formation, cell-free extract (NusA-AADC) | HPLC of dopamine formation, cell-free extract [1] | HPLC of dopamine formation, cell-free extract (PPIase KS-1-AADC [2]) | HPLC (AccQ-tag) of phenylethylamine produced by recombinant E. coli cells (PPIase KS-1-AADC [3])
1 | N[C@@H](Cc1ccc(O)c(O)c1)C(=O)O [L-dopa] | the AADC activity toward L-dopa was significantly higher in PPIase KS−1-AADC as compared to NusA-AADC | The AADC activity was measured using these cell-free extracts | the AADC activity toward L-dopa was significantly higher in PPIase KS−1-AADC as compared to NusA-AADC | 
2 | N[C@@H](Cc1ccccc1)C(=O)O [L-phenylalanine] |  |  |  | Phenylethylamine accumulation was also higher in PPIase KS−1-AADC-producing strain
